Marks after values point to notes of the source that are not given here.
How the values were obtained:
[1] = test system: experimental rabbit ear acne; assay: Pharmacodynamics evaluation of acne: coal tar rabbit ear acne model, HE pathology; type: in vivo, Japanese big-ear white rabbits; conditions: 0.01% ointment, 1 g per animal, once a day, two weeks, 10 rabbits per group; for Degree of keratinization: number of rabbits graded + / Degree of keratinization: number of rabbits graded ++ / Degree of keratinization: number of rabbits graded +++ / Degree of keratinization: number of rabbits graded −: hair follicle keratinization
Source text: There are 140 male healthy Japanese big-ear white rabbits, weighing 2.0-2.5 kg. After one week of adaptive rearing, 10 rabbits were randomly selected according to their body weights as the normal control group, and the remaining 130 rabbits were coated with coal tar once a day in the area of 2×2 cm2 at 2 cm outside the opening of ear canal, with a thickness of about 0.5 mm (Before coating, the coal tar was heated to melt in a water bath, and the last coal tar shell was removed before each application; the rabbits in normal control group were coated with olive oil by the same method as before). After 3 weeks for modeling, according to the degree of skin lesion, 130 rabbits were randomly divided into 13 groups which is model control group, Example 1 compound (1 group), Example 2 compound (2 groups), Example 3 compound (3 groups), Example 4 (4 groups), Example 5 (5 groups), Example 6 (6 groups), Example 7 (7 groups), Example 8 (8 groups), Example 9 (9 groups), Example 10 (10 groups), Example 11 (11 groups), Example 12 (12 groups), Example 13 (13 groups), and each group had 10 rabbits. After grouping, each dose group were continued to be coated coal tar in the morning, and after the coal tar was removed in the afternoon, apply the test drug or control drug (both 0.01%/10 g ointment, apply 1 g ointment per animal) on the lesion, once a day, for two consecutive weeks (the model control group and the normal control group were coated with the same amount of matrix). 24 hours after the last administration, the animals were sacrificed by air embolism, and the skin (full thickness) of the ear where the administration was administered was taken, fixed with 4% paraformaldehyde solution, stained with HE, and routinely observed for pathology.1.

[2] = Pharmacokinetic experiment after intragastric administration in mice (LC-MS/MS of ZONK1901-1 and ZONK1901-2)
Experimental: To study the pharmacokinetic properties after intragastric administration in mice.
Each mouse was collected at 2-3 discrete points in time.
An LC-MS/MS analysis method for determining the concentrations of ZONK 1901-1 and ZONK1901-2 in mouse whole blood was established. At the same time, the obtained plasma concentration data was calculated by using the pharmacokinetic processing software Pharsight Phoenix WinNonlin8.0 non-compartmental model to calculate relevant pharmacokinetic parameters.

[3] = test system: human prostate cancer cell VCaP nude mouse transplanted tumor model; assay: Prostate tumor pharmacodynamics experiment: VCaP nude mouse transplanted tumor model; type: in vivo, BALB/c nude mice; conditions: 0.5 mmol·kg−1 i.g. QD; for Tumor volume, day 25: * P<0.05, ** P<0.01 vs solvent control; for inhibition in vivo at 500 µmol/kg: Mus musculus, VCaP, po, 600 h, read-out: Growth Inhibition rate (GI)
Experimental: Male BALB/c nude mice (number: 90; age: 6-7 weeks) purchased from Beijing Vital River Laboratory Animal Technology Co., Ltd., were raised in the SPF animal room of Suzhou Shengsu New Drug Development Co., Ltd. at a temperature of 20˜25° C. and a relative humidity 40%˜70%, and bright and dark illumination for 12 hours respectively; these mice were allowed to drink and eat freely. After normal feeding for about 6 days, mice with good physical signs can be selected for this experiment after veterinary inspection. Before grouping, animals were identified at their base of tail using marking pens. After grouping, each animal was identified by ear clipping.
Human prostate cancer cells VCaP were obtained from the Shanghai Cell Bank of the Chinese Academy of Sciences (CAS, cryopreserved in liquid nitrogen in our laboratory).
Under a culture condition of 5% CO2 and 37° C., VCaP cells were routinely cultured in DMEM medium containing 10% fetal bovine serum. Digested with 0.25% trypsin and passaged, VCaP cells were passaged 2-3 times per week based on cell growth, with a passage ratio of 1:3 to 1:5.
The VCaP cells in logarithmic growth phase were collected, counted, and resuspended in 50% DMEM basal medium and 50% Matrigel Matrix, and the cell concentration was adjust to 5×10^7 cells/mL; the cells was placed in an ice box; Cell suspension was aspirated with a 1 ml syringe, and injected subcutaneously to the anterior right armpit of nude mice. Each animal was inoculated with 200 μL (1×10^7 cells/mouse), and a VCaP transplant tumor model in nude mice was established. Regularly observe the status of mice, measure the diameter of the tumor with an electronic vernier caliper, input the data into Excel spreadsheets, calculate the tumor volume, and monitor its growth. When the tumor volume reached 100-300 mm3, 60 mice with good health and similar tumor volume were selected, and divided into 10 groups (n=6) based on the tumor volume using random block method, while ensuring that the average body weight of each group remained consistent as much as possible. The day of grouping was taken as the first day of the experiment (D1). The tumor diameters were measured twice a week after the initiation of the experiment, the tumor volumes were calculated, and the body weights of the animals were weighed and recorded at the same time.
Preparation of DMSO&PEG400&PG (v:v:v, 10:60:30): appropriate volumes of DMSO, PEG400 and PG were drawed respectively, and mixed well. The ratio of DMSO, PEG400 and PG in the mixture is 10:60:30 (v:v:v), and this mixture is used as a blank solvent and stored at room temperature.
Appropriate amount of the test compound was weighed and added into a glass bottle, appropriate volume of solvent DMSO was added, be treated with vortex ultrasonication, then appropriate volumes of PEG400 and PG were added in turn, be vortex mixed to obtain a dosing formulation with a final concentration of 0.05M. The dosing formulation was stored in refrigerator at 2-8° C. after subpackaging, and was stirred evenly with vortex before each administration. The dosing formulation was prepared every 7 days, and was subpackaged and stored in refrigerator at 4° C.
Appropriate amount of ZONK1901-10 was weighed and added into a glass bottle, appropriate volume of corn oil, was added, be treated with vortex ultrasonication evenly, a dosing formulation with a final concentration of 19.58 mg·mL-1 (0.05 M) was obtained.

[4] = test system: tumor model mice inoculated with Vcap (human prostate cancer cells); conditions: intraperitoneal injections, cited from earlier work
[5] = metabolite ZONK1901-1 (M1) in mouse blood after intragastric administration of the group's compound
[6] = metabolite ZONK1901-2 (M2) in mouse blood after intragastric administration of the group's compound

| SMILES | degree of inflammatory cell infiltration: number of rabbits graded + [1] | degree of inflammatory cell infiltration: number of rabbits graded ++ [1] | degree of inflammatory cell infiltration: number of rabbits graded +++ [1] | degree of inflammatory cell infiltration: number of rabbits graded − [1] | Degree of keratinization: number of rabbits graded + [1] | Degree of keratinization: number of rabbits graded ++ [1] | Degree of keratinization: number of rabbits graded +++ [1] | Degree of keratinization: number of rabbits graded − [1] | Tumor volume, day 25 ([3]; day 25, n=6) | inhibition in vivo at 500 µmol/kg ([3]; day 25, vs solvent control) | other results |
| --- | --- | --- | --- | --- | --- | --- | --- | --- | --- | --- | --- |
| CNCCC(=O)ON=C1C=C2CC[C@H]3[C@H](CC[C@]4(C)C(c5cccnc5)=CC[C@@H]34)[C@@]2(C)CC1 [Example 6, (8S,9S,10R,13S,14S)-10,13-Dimethyl-17-(pyridin-3-yl) -6,7,8,9,10,11,12,13,14,15-decahydro-1H-cyclopenta[a]phenanthrenyl-3(2H)-one O-(3-(methylamino)propionyl)oxime] | 6 | 3 | 1 | 0 | 5 | 5 | 0 | 0 | 405 ± 15 * mm3 | – | AUC0-inf [2, 5]: 2.396 µM·h; AUC0-t [2, 5]: 2.103 µM·h; Cmax [2, 5]: 679 nM; Tmax [2, 5]: 2.00 h; t1/2 [2, 5]: 2.73 h; AUC0-inf [2, 6]: 2.287 µM·h; AUC0-t [2, 6]: 2.237 µM·h; Cmax [2, 6]: 421 nM; Tmax [2, 6]: 2.00 h; t1/2 [2, 6]: 3.17 h; Tumor volume, Day 1 ([3]; Day 1 (day of grouping, start of dosing), n=6): 227 ± 21^ mm3; Growth Inhibition rate (GI) ([3]; day 25, vs solvent control): 80.7% ** |
| CC(=O)O[C@H]1CC[C@@]2(C)C(=CC[C@@H]3[C@@H]2CC[C@]2(C)C(c4cccnc4)=CC[C@@H]32)C1 [ZONK1901-10, abiraterone acetate, reference compound] | – | – | – | – | – | – | – | – | 765 ± 46 * mm3 | 44.1% | M2 (ZONK1901-2) in the metabolites ([2]; intragastric administration): not detected; Autopsy finding on absorption of the drug [4]: some of the drugs were not absorbed; Adverse findings in tumor model mice ([4]; some mice): developed abdominal distension and died |
| C[C@]12CCC(=NOC(=O)N3CCC(N4CCCCC4)CC3)C=C1CC[C@H]1[C@@H]2CC[C@]2(C)C(c3cccnc3)=CC[C@@H]12 [Example 4, (8S,9S,10R,13S,14S)-10,13-Dimethyl-17-(pyridin-3-yl) -6,7,8,9,10,11,12,13,14,15-decahydro-1H-cyclopentene[a]phenanthrenyl-3(2H)-one O-([1,4′-bipiperidine]-1′-carbonyl)oxime] | 5 | 3 | 2 | 0 | 7 | 3 | 0 | 1 | 377 ± 37 ** mm3 | 84.2% | – |
| CN(C)C(=O)ON=C1C=C2CC[C@H]3[C@H](CC[C@]4(C)C(c5cccnc5)=CC[C@@H]34)[C@@]2(C)CC1 [Example 2, (8S,9S,10R,13S,14S)-10,13-Dimethyl-17-(pyridin-3-yl) 6,7,8,9,10,11,12,13,14,15-decahydro-1H-cyclopenta[a]phenanthrene-3(2H)-one O-dimethylcarbamoyl oxime] | 4 | 4 | 2 | 0 | 5 | 5 | 0 | 0 | 393 ± 25 ** mm3 | 81.4% | – |

— patent US20240208905A1, “ABIRATERONE DERIVATIVE, PREPARATION AND APPLICATION THEREOF” (GUANGDONG ZHONGKE MEDICINE R&D LTD., priority 2021, published 2024)
